The source of these data is PMC7591811 (Journal of Pharmaceutical Analysis, 2020).

A word on the % Inhibition: it is the relative decrease from the control value, in per cent. Higher therefore signals a response far below the control. Broadly, the IC50 is the midpoint of a concentration-inhibition curve. A lower IC50 goes with greater potency in that assay. What is called Ki is the equilibrium dissociation constant of an inhibitor or competing ligand from its target. What is called inhibition is the drop in the measured response relative to a control, in per cent. Broadly, the Kd is a measure of binding affinity in units of concentration.

For series [1], the system named is Cl^- channel (GABA gated). The series is described as follows: Lead profiling screen. Format: binding. As to conditions: 10 μM, Rat.
Series [2] concerns the target T1, Melatonin MT2 (Homo sapiens, UniProt P49286).
T1 sequence (P49286 1-362): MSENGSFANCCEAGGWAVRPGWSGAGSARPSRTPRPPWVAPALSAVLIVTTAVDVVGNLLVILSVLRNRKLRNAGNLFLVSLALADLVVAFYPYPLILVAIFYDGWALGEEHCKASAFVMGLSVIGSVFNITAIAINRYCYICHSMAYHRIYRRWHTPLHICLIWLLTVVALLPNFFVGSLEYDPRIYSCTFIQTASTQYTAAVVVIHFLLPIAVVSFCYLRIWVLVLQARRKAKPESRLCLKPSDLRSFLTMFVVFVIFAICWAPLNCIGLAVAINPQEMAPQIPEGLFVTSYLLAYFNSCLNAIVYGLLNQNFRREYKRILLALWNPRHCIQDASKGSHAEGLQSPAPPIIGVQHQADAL
The series is described as follows: Lead profiling screen. Format: binding. Particulars: for inhibition at 10 µM: Melatonin MT2, Human.

In series [3] the target is Melatonin MT1 (Homo sapiens, UniProt P48039). The series is described as follows: Lead profiling screen. It is filed as binding.
Melatonin MT1, sequence (P48039 whole entry): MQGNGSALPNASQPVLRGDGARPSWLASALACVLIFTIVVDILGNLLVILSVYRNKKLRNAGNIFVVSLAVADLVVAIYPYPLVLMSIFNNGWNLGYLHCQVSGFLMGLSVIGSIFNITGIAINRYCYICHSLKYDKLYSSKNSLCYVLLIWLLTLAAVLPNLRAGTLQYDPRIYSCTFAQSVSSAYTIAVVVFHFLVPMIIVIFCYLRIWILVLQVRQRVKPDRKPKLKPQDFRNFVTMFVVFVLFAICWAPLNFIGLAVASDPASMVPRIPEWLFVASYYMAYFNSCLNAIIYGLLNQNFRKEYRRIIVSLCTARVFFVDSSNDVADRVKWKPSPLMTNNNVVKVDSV
For series [4], the target named is BZD (peripheral) (Rattus norvegicus, UniProt P16257). The series is described as follows: Lead profiling screen. It is filed as binding. As to conditions: for inhibition at 10 µM: BZD (peripheral) / TSPO, Rat.
BZD (peripheral), sequence (P16257 whole entry): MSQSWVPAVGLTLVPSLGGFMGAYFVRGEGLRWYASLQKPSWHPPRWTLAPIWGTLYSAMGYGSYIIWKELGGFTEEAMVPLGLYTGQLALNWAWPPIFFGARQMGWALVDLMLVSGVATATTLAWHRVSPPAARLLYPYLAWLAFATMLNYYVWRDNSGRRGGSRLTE
For series [5], the target named is T2, Adenosine A3 (Homo sapiens, UniProt P0DMS8).
T2 sequence (P0DMS8 1-318): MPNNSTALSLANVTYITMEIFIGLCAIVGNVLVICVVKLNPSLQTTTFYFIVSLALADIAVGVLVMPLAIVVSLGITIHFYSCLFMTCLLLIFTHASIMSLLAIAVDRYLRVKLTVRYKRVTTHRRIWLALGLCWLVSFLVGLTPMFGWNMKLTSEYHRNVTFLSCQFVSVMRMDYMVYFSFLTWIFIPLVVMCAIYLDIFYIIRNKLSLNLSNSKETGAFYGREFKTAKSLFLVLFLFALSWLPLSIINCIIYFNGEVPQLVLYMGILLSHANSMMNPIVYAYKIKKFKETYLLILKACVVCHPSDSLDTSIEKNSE
The series is described as follows: Lead profiling screen. Particulars: for inhibition at 10 µM: Adenosine A3, Human. It is filed as binding.

Series [6] has as its system BZD (central). The series is described as follows: Lead profiling screen. It is filed as binding. Particulars: 10 μM, Rat.
Series [7] addresses T3, AR (Homo sapiens, UniProt P10275).
T3 sequence (P10275 1-920): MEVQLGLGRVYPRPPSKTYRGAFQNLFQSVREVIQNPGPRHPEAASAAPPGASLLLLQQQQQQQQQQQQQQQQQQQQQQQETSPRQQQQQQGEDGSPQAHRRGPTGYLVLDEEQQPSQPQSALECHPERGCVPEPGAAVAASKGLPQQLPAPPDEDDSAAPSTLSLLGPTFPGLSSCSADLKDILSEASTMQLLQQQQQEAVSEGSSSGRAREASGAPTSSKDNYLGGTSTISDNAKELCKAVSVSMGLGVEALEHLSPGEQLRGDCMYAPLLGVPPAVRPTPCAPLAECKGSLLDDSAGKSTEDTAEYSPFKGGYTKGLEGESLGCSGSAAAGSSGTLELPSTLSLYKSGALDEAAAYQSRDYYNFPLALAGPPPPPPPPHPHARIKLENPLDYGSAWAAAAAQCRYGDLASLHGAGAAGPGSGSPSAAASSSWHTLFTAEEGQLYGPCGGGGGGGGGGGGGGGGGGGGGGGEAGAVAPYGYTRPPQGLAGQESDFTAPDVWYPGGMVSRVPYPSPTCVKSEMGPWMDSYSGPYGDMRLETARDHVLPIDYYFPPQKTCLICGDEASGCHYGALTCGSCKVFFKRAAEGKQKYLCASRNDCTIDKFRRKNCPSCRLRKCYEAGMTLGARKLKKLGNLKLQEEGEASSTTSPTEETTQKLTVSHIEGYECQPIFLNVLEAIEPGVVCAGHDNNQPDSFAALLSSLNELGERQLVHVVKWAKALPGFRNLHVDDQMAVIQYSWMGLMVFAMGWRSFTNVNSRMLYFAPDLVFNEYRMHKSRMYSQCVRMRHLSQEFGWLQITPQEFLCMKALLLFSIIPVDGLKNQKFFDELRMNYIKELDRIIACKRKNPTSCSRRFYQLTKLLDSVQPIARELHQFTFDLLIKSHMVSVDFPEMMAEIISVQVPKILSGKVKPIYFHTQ
The series is described as follows: Lead profiling screen. It is filed as binding. As to conditions: Rat.

Series [8] deals with Cyclooxygenase 1 (Homo sapiens, UniProt P23219). The series is described as follows: Lead profiling screen, enzyme assay. Format: biochemical.
Cyclooxygenase 1, sequence (P23219 24-599, species assumed): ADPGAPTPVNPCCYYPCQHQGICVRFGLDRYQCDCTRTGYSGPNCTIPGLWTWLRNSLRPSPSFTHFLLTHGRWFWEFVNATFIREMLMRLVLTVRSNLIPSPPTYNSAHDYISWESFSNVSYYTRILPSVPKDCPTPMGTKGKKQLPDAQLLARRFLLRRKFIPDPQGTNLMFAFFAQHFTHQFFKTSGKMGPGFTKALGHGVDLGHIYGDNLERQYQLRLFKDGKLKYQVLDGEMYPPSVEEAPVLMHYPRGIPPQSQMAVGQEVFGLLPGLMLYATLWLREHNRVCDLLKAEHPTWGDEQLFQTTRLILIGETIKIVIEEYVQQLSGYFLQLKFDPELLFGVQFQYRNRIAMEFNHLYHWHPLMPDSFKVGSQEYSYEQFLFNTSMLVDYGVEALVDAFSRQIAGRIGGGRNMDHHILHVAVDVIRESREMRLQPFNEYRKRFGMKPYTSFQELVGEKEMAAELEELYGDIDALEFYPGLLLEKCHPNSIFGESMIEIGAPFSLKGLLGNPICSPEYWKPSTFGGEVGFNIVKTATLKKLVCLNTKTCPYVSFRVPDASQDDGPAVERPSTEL
Series [9] deals with T4, UT (Homo sapiens, UniProt Q9UKP6).
T4 sequence (Q9UKP6 1-389): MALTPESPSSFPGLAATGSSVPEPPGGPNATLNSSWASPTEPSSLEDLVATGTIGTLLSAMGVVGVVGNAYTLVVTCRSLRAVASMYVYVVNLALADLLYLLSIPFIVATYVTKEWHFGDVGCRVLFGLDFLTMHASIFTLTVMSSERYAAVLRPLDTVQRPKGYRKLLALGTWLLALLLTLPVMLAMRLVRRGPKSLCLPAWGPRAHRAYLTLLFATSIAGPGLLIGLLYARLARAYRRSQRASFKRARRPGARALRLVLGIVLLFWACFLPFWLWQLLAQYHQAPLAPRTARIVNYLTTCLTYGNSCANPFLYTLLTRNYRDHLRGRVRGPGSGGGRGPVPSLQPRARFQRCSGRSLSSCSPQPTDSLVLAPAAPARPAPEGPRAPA
The series is described as follows: Lead profiling screen. Format: binding. As to conditions: for inhibition at 10 µM: UT, Human.

Series [10] addresses Serotonin (5-Hydroxytryptamine) 5-HT2B (Homo sapiens, UniProt P41595). The series is described as follows: Lead profiling screen. It is filed as binding. As to conditions: for inhibition at 10 µM: 5-HT2B, Human.
Series [11] concerns the target ctRAGE. As to conditions: read-out: ctRAGE Kd; cited from earlier work.
Series [12] deals with Serotonin (5-Hydroxytryptamine) 5-HT2A (Homo sapiens, UniProt P28223). The series is described as follows: Lead profiling screen. It is filed as binding.
Serotonin (5-Hydroxytryptamine) 5-HT2A, sequence (P28223 whole entry): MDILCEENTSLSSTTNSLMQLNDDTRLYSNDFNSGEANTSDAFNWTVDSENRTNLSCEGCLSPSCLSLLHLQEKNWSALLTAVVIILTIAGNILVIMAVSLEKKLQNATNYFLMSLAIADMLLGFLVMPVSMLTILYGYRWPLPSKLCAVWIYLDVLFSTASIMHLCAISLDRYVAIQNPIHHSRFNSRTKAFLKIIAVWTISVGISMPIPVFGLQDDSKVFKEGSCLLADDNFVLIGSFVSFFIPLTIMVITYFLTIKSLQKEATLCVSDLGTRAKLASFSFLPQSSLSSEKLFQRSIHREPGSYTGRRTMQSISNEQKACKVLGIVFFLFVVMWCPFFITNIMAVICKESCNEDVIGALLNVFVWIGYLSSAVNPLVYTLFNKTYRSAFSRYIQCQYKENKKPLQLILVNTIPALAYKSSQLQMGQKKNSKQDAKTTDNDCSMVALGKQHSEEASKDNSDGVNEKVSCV
Series [13] concerns the target Norephinephrine transporter (Homo sapiens, UniProt P23975). The series is described as follows: Lead profiling screen. Format: binding.
For series [14], the target named is EP2 (Homo sapiens, UniProt P43116). The series is described as follows: Lead profiling screen. It is filed as binding.
EP2, sequence (P43116 whole entry): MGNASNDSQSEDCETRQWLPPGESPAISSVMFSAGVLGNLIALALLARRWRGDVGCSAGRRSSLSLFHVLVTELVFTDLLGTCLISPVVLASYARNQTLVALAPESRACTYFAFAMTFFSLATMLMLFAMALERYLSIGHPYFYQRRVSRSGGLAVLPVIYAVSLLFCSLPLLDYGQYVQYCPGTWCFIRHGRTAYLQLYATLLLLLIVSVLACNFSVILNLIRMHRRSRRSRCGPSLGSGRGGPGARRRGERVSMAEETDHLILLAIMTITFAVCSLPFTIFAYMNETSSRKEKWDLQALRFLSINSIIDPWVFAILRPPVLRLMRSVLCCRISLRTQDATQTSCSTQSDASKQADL
Series [15] is described as follows: Nonhuman primate [18F]RAGER PET, melatonin blocking and displacement. As to conditions: NHP.
Series [16] is described as follows: Rodent [18F]RAGER PET, melatonin blocking. As to conditions: 5 μg/kg i.v. 10 min prior to [18F]RAGER, healthy rodents.
The nature of series [17]: [18F]RAGER autoradiography, competitive binding with melatonin. On the set-up: species or system human. As to conditions: 10 μM melatonin; control, AD and DLB + AD brain tissue sections.
Series [18] deals with Transporter, Dopamine (DAT) (Homo sapiens, UniProt Q01959). The series is described as follows: Lead profiling screen. It is filed as binding.
Transporter, Dopamine (DAT), sequence (Q01959 whole entry): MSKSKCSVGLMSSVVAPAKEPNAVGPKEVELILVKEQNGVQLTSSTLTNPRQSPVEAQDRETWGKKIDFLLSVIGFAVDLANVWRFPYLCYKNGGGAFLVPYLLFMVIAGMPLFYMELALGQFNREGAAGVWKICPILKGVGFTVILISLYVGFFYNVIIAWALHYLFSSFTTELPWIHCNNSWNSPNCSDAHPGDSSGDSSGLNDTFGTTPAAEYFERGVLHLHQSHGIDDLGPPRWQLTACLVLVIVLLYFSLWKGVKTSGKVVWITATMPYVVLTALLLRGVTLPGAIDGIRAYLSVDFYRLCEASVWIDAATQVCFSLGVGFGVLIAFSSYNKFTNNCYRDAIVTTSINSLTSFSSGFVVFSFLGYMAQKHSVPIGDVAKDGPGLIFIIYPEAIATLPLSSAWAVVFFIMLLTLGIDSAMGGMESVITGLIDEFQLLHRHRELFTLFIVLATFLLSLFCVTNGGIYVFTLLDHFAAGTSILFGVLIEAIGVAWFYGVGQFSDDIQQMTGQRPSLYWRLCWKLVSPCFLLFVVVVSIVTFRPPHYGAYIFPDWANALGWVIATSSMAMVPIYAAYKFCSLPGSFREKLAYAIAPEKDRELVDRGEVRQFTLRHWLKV
The target in series [19] is Peripheral benzodiazepine receptor (Rattus norvegicus, UniProt P16257). The series is described as follows: Lead profiling screen, RAGER. It is filed as binding.
Peripheral benzodiazepine receptor, sequence (P16257 whole entry): as the sequence (P16257 whole entry) above
Series [20] concerns the target T5, Androgen (Testosterone) (Homo sapiens, UniProt P10275).
T5 sequence (P10275 1-920): T3 sequence (P10275 1-920)
The series is described as follows: Lead profiling screen. Format: binding.

For series [21] the following is noted: cited from earlier work.

Serotonin (5-Hydroxytryptamine) 5-HT2B, sequence (P41595 whole entry): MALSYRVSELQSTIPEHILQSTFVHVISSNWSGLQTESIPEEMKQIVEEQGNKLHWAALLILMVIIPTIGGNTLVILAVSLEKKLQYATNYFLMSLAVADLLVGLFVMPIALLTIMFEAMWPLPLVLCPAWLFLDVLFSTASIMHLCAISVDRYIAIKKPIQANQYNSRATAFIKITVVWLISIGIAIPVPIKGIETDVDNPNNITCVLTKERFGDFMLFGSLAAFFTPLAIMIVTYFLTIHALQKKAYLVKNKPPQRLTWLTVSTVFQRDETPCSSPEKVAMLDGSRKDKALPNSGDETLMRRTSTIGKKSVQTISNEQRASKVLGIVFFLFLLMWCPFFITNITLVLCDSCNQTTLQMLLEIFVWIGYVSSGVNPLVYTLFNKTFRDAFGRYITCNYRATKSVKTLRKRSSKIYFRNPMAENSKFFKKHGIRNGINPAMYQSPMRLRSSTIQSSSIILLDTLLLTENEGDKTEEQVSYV
Norephinephrine transporter, sequence (P23975 whole entry): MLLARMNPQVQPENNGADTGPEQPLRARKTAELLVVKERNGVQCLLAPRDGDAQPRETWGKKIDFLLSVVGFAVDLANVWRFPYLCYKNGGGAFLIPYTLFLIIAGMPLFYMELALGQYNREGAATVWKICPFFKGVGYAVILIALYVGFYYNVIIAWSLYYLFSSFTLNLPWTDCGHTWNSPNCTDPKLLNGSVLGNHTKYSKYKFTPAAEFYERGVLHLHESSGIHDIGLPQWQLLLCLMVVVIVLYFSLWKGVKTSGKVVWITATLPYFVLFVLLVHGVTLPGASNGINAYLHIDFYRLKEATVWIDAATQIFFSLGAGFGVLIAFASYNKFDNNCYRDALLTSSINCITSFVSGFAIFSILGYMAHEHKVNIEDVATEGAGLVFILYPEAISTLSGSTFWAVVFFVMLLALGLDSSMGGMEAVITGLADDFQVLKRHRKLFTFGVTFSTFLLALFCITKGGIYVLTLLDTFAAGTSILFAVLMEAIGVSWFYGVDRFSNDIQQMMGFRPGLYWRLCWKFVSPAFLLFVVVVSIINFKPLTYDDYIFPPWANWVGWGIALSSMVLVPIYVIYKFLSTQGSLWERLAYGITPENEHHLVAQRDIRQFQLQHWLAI

For `O=C(c1ccc(Cl)cc1)N(Cc1ccccc1)C1CCCCC1` [FPS-ZM1, N-Benzyl-N-cyclohexyl-4-chlorobenzamide], the figures for the “% Inhibition” value in series [1] and in series [6] were 62% and 59%, respectively. Further, the IC50 in series [2] worked out at 7000 nM; in series [3], 1500 nM. For the same compound, the Ki worked out at 4400 nM in series [2] and 1200 nM in series [3]. Further, the inhibition at 10 µM in series [2] is 54%; in [3] it was 54%; in series [4] it was 85%; in series [5] it was 64%; in [7], 88%.

Turning to `COc1cc(NC(C)=O)c(Cl)cc1C(=O)Nc1nccs1` [InRAGER2, 4-Acetamido-5-chloro-2-methoxy-N-(thiazol-2-yl)benzamide], the IC50 in series [8] came out at 12000 nM; in series [9] it was 1400 nM; in series [10], 260 nM; in series [4], 480 nM; in series [5] it was 1400 nM. The Ki came to 1000 nM in series [9], 130 nM in series [10], 440 nM in [4] and 830 nM in series [5]. In addition, the inhibition at 10 µM was 85% in series [9], 95% in [10], 81% in [4] and 75% in series [5]. Moreover, in [11], the Kd was 0.3 ± 0.05 nM.

With `Oc1cccc(Nc2nc(-c3ccc(F)cc3F)cs2)c1` [InRAGER, 3-((4-(2,4-difluorophenyl)thiazol-2-yl)amino)phenol], the IC50 was 1400 nM in [9], 260 nM in series [10] and 480 nM in series [4]. Moreover, the Ki stood at 8900 nM in series [9]; 7800 nM in series [12]; 550 nM in series [10]; 1500 nM in [13]; 12000 nM in series [4]; 24 nM in series [5]. In addition, the Ki in [14] is 2300 nM. Moreover, the inhibition at 10 µM is 78% in series [9]; 97% in [10]; 95% in series [13] (10 μM, Norephinephrine transporter, Human); 99% in series [5]; 74% in series [14] (10 μM, EP2, Human). Further, the Kd in [11] is 1 ± 0.5 nM.

In the case of `COc1ccc2[nH]cc(CCNC(C)=O)c2c1` [Melatonin], the “change in radioligand uptake, maximal SUV, TAC shape vs baseline (blocking)” value in series [15] (5 μg/kg i.v. 10 min prior to [18F]RAGER) is “did not reveal any decrease”. In series [15] (10 μg/kg i.v. 40 min into the 90 min scan), the “maximal SUV or TAC shape vs baseline (displacement)” value is “did not differ significantly”. The “effect on [18F]RAGER uptake or washout compared to baseline” value in series [16] was “no effect”. Besides, the “displacement of [18F]RAGER” value in series [17] is “not able to displace”.

For `O=C(c1ccc(F)cc1)N(Cc1ccccc1)C1CCCCC1` [RAGER, N-Benzyl-N-cyclohexyl-4-fluorobenzamide], the Ki in [18] came out at 6800 nM; in series [19] it was 8500 nM; in series [2], 700 nM; in [3], 93 nM; in [20], 2600 nM. Moreover, the inhibition at 10 µM amounted to 52% in series [18]; 64% in series [19] (read-out: %Inhibition at 10 μM); 82% in series [2]; 96% in [3]; 59% in series [20]. In [21], the “experimental log P” value is recorded as 3.5.
